The source of these data is patent US10316039B2, “P2X3 and/or P2X2/3 compounds and methods” (Asana Biosciences, LLC, priority 2013, dated 2019).

Molecules are shown by their SMILES.

One test has as its target T1, P2X2/3 (Homo sapiens, UniProt P56373+Q9UBL9).
T1 sequence (Q9UBL9 1-471): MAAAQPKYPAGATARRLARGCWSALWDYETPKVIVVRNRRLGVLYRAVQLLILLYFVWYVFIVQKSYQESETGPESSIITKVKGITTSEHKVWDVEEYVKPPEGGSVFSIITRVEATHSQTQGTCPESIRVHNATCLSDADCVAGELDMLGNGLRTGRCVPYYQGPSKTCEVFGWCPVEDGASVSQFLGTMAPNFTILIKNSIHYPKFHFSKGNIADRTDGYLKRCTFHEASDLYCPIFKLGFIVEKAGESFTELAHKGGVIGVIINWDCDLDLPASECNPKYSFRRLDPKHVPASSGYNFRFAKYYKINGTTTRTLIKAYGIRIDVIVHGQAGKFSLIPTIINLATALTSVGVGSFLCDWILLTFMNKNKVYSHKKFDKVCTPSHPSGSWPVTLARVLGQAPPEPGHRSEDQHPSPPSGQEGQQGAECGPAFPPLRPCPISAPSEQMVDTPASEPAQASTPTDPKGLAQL
T1 sequence (P56373 1-397): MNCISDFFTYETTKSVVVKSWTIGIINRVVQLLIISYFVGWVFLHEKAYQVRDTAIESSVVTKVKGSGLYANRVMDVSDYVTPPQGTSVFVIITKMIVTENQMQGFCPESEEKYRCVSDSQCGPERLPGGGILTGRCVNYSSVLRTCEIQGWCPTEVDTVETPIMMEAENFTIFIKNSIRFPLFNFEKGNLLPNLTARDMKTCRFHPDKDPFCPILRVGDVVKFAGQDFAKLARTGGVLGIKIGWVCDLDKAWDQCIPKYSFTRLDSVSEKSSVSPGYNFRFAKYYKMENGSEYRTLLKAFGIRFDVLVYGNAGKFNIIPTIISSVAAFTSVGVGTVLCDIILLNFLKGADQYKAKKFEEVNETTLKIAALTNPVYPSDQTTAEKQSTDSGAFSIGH
In words: P2X2/3 FLIPR intracellular calcium assay. Format: cell-based. Conditions: agonist at EC75, species (human or rat) not given. The method in brief:
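Stable human P2X2/3 TRex293 cells (doxycycline-induced) loaded with Calcium 4 dye; compounds, 11-point half-log series from 2 mM top stock, preincubated 15 min at RT in HBSS/HEPES pH 7.4 with 1.8 mM CaCl2. Agonist added at EC75; fluorescence change versus no-compound wells gave IC50.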

In the next test the target is T2, P2X3 (UniProt P56373).
T2 sequence (P56373 1-397): T1 sequence (P56373 1-397)
In words: P2X3 FLIPR intracellular calcium assay. The following applies: agonist at EC75, species (human or rat) not given. Format: cell-based. The method in brief:
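Human P2X3-HEK, human P2X2/3-TRex293, rat P2X2/3-TRex293 or rat P2X3 TRex-CHO cells loaded with Calcium 4 dye (1.8 mM probenecid, pH 7.4).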

Consider `Cc1ncc(CNC(=O)c2cc(-n3nncc3C(F)F)c3ncc(-c4cnc(C)s4)n3c2)cn1` [Example 66], for which the IC50 at P2X2/3 and at P2X3 was 0.1 to 1 µM each time.

Turning to `CC[C@H](NC(=O)c1cc(-n2nncc2C(C)(C)C)c2ncc(-c3ccc(C)s3)n2c1)c1nnc[nH]1` [Example 67], the IC50 at P2X2/3 and at P2X3 was 0.001 to 0.1 µM each time.

Turning to `Cc1ncc(CNC(=O)c2cc(-n3nncc3C(F)(F)F)c3ncc(-c4ncc(C)s4)n3c2)cn1` [Example 68], the IC50 on P2X2/3 was in the range of 0.1 to 1 µM; at P2X3 it was 0.001 to 0.1 µM.

With `CC[C@H](NC(=O)c1cc(-n2nncc2C(C)C)c2ncc(-c3ccc(Cl)s3)n2c1)c1nnc[nH]1` [Example 69], the IC50 was in the range of 0.1 to 1 µM on P2X2/3 and 0.001 to 0.1 µM at P2X3.

Regarding `Cc1ccc(-c2cnc3c(-n4nncc4C(C)(F)F)cc(C(=O)N[C@@H](C)c4nnc[nH]4)cn23)s1` [Example 70], the IC50 on P2X2/3 and at P2X3 was 0.001 to 0.1 µM in each case.

`Cc1ncc(CNC(=O)c2cc(-n3nncc3C(C)(F)F)c3ncc(-c4ncc(C)s4)n3c2)cn1` [Example 71]: the results for the IC50 on P2X2/3 and on P2X3 were 0.1 to 1 µM and 0.001 to 0.1 µM, respectively.

With `Cc1ncc(CNC(=O)c2cc(-n3nncc3C(C)(F)F)c3ncc(-c4ccc(C)s4)n3c2)cn1` [Example 72], the IC50 at P2X2/3 and on P2X3 was 0.001 to 0.1 µM throughout.

As for `CCc1cnnn1-c1cc(C(=O)N[C@H](c2nnc[nH]2)C(C)C)cn2c(-c3ccc(C)s3)cnc12` [Example 73], the IC50 at P2X2/3 and on P2X3 was 0.1 to 1 µM each time.

For `Cc1ccc(-c2cnc3c(-n4nncc4C)cc(C(=O)N[C@H](c4nnc[nH]4)C(C)C)cn23)s1` [Example 74], the IC50 at P2X2/3 lay within 1 to 10 µM; on P2X3 it was 0.1 to 1 µM.

Regarding `CCc1cnnn1-c1cc(C(=O)NCc2cnc(C)nc2)cn2c(-c3ncc(C)s3)cnc12` [Example 75], the IC50 lay in the range of 0.1 to 1 µM on P2X2/3 and 0.001 to 0.1 µM on P2X3.

`C[C@H](NC(=O)c1cc(-n2nncc2C(C)(F)F)c2ncc(-c3ccc(Cl)s3)n2c1)c1nnc[nH]1` [Example 76]: the IC50 at P2X2/3 and at P2X3 was 0.001 to 0.1 µM each time.

On to `Cc1cnc(CNC(=O)c2cc(-n3nncc3C(F)F)c3ncc(-c4ncc(C)s4)n3c2)cn1` [Example 77], for which the results for the IC50 at P2X2/3 and on P2X3 were 0.1 to 1 µM and 0.001 to 0.1 µM, respectively.

Consider `Cc1cnc(CNC(=O)c2cc(-n3nncc3C(F)F)c3ncc(-c4ccc(C)o4)n3c2)cn1` [Example 78], for which the IC50 on P2X2/3 and on P2X3 was 0.001 to 0.1 µM in each case.

As for `C[C@H](NC(=O)c1cc(-n2nncc2C(F)(F)F)c2ncc(-c3ccc(Cl)s3)n2c1)c1nnc[nH]1` [Example 79], the IC50 on P2X2/3 and at P2X3 was 0.001 to 0.1 µM throughout.

As for `Cc1ncc(CNC(=O)c2cc(-n3nncc3CC(F)(F)F)c3ncc(-c4ccc(C)s4)n3c2)cn1` [Example 80], the IC50 on P2X2/3 and at P2X3 was 0.001 to 0.1 µM in each case.

On to `Cc1ccc(-c2cnc3c(-n4nncc4CC(F)(F)F)cc(C(=O)N[C@@H](C)c4nnc[nH]4)cn23)s1` [Example 81], for which the IC50 at P2X2/3 and at P2X3 was 0.001 to 0.1 µM each time.

Regarding `Cc1ncc(CNC(=O)c2cc(-n3nncc3CC(F)(F)F)c3ncc(-c4ncc(C)s4)n3c2)cn1` [Example 82], the IC50 at P2X2/3 lay in the range of 0.1 to 1 µM; at P2X3 it was 0.001 to 0.1 µM.

In the case of `COc1ccc(CNC(=O)c2cc(-n3nncc3C(F)F)c3ncc(-c4ccc(C)s4)n3c2)cn1` [Example 83], the IC50 on P2X2/3 and on P2X3 was 0.001 to 0.1 µM throughout.

On to `Cc1ncc([C@@H](C)NC(=O)c2cc(-n3nncc3C(F)F)c3ncc(-c4ncc(C)s4)n3c2)cn1` [Example 84], for which the IC50 on P2X2/3 and on P2X3 was 0.001 to 0.1 µM in each case.

Regarding `Cc1noc([C@@H](C)NC(=O)c2cc(-n3nncc3C(F)F)c3ncc(-c4ccc(C)s4)n3c2)n1` [Example 85], the IC50 at P2X2/3 and at P2X3 was 0.001 to 0.1 µM throughout.

On to `COc1ncc(CNC(=O)c2cc(-n3nncc3C(F)(F)F)c3ncc(-c4ncc(C)s4)n3c2)cn1` [Example 86], for which the half-maximal inhibitory concentration (IC50) at P2X2/3 and at P2X3 was 0.1 to 1 µM each time.
